According to ChEMBL document CHEMBL1134860, “Novel thiophene derivatives for the treatment of benign prostatic hyperplasia” (Bioorg Med Chem Lett, 2002):

Legend:
[1] = biological target: Alpha adrenergic receptor (1a and 1d) (Homo sapiens) (UniProt P35348+P25100); experiment: Relative binding to alpha1d and alpha-1a receptors (ratio of Ki); assay type: protein assay
[2] = biological target: T1, Alpha-1A adrenergic receptor (Homo sapiens, UniProt P35348); experiment: Displacement of [125I]HEAT from COS cell membranes expressing human Alpha-1A adrenergic receptor
T1 sequence (P35348 whole entry): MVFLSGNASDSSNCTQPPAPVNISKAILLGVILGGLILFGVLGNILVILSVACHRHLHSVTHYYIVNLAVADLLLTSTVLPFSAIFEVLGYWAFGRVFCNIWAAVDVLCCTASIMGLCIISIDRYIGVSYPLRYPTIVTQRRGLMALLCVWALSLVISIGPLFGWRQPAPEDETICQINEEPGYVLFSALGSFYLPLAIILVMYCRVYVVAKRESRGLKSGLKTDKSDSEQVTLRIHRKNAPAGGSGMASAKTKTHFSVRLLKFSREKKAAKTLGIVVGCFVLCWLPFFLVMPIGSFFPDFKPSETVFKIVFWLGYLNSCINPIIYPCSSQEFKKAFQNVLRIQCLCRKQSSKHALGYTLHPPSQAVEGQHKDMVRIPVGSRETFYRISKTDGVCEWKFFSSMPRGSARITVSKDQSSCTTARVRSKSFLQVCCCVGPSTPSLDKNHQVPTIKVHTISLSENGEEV

[3] = biological target: T2, Alpha-1B adrenergic receptor (Homo sapiens, UniProt P35368); experiment: Displacement of [125I]HEAT from COS cells membranes expressing human Alpha-1B adrenergic receptor; assay type: cell membranes
T2 sequence (P35368 whole entry): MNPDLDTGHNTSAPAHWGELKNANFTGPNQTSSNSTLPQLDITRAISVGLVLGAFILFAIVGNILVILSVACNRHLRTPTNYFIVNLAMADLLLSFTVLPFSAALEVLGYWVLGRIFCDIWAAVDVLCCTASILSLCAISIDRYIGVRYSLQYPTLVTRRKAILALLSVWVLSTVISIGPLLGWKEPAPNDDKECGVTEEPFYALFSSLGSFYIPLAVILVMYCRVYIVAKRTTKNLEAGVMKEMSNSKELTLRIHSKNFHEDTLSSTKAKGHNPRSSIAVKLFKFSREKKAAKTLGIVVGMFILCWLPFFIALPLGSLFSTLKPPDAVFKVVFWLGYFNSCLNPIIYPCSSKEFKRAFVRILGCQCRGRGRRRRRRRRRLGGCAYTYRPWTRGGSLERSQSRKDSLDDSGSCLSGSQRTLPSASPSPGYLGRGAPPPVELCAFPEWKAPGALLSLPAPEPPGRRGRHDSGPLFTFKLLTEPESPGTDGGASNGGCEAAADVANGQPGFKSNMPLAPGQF

[4] = biological target: Adrenergic receptors; alpha-1 A & B (Homo sapiens) (UniProt P35348+P35368); experiment: Relative binding to alpha-1b and alpha-1a receptors (ratio of Ki); assay type: protein assay
[5] = biological target: T3, Alpha-1D adrenergic receptor (Homo sapiens, UniProt P25100); experiment: Displacement of [125I]-HEAT from human Alpha-1D adrenergic receptor expressed in COS cells membranes; assay type: cell membranes
T3 sequence (P25100 whole entry): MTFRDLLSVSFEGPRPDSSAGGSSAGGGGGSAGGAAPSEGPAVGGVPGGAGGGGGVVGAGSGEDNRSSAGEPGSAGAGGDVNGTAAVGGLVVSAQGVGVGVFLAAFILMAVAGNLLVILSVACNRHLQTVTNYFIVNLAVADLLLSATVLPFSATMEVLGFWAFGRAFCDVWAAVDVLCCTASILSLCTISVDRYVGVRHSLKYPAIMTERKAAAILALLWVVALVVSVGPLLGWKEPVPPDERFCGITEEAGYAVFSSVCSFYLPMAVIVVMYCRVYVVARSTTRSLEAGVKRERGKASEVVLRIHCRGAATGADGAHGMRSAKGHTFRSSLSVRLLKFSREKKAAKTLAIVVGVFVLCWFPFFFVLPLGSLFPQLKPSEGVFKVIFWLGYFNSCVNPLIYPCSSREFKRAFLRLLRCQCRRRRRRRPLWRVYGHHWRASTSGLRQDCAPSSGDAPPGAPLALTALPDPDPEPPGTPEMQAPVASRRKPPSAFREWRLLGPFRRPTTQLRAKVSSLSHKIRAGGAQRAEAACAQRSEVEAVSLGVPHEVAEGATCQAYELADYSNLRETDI

Compound	Ratio [1]	Ki [2] [nM]	Ki [3] [nM]	Ratio [4]	Ki [5] [nM]
COc1ccccc1N1CCN(Cc2ccc(Br)s2)CC1	0.7	128	757	6	92
COc1ccccc1N1CCN(Cc2ccc(CO)s2)CC1	0.7	202	1060	5.3	138
CC(C)Oc1ccccc1N1CCN(Cc2cc(CO)cs2)CC1	1	331	> 5000	> 15	339
COc1ccccc1N1CCN(Cc2ccc(C=O)s2)CC1	0.4	578	1880	3.2	262
CC(C)Oc1ccccc1N1CCN(Cc2cc(CN3CCCCCC3=O)cs2)CC1	26	1.8	615	342	47
COc1ccccc1N1CCN(Cc2ccc(CN3CCCCC3O)s2)CC1 (stereo not given)	0.3	419	2570	6.1	130
COc1ccccc1N1CCN(Cc2ccc(CN3CCCCC3=O)s2)CC1	0.9	14	> 5000	> 357	12
COc1ccccc1N1CCN(Cc2ccc(CN3CCCC3=O)s2)CC1	0.6	40	> 5000	> 125	23
CC(C)Oc1ccccc1N1CCN(Cc2cc(CN3CCCCC3=O)cs2)CC1	184	0.5	384	769	92
COC(=O)[C@@H]1CCCN1Cc1ccc(CN2CCN(c3ccccc3OC)CC2)s1	1.3	12	592	49	15
COc1ccccc1N1CCN(Cc2ccc(CN3CCCCCC3=O)s2)CC1	0.7	18	> 5000	> 278	13
CC(C)Oc1ccccc1N1CCN(Cc2cc(CN3CCCC3=O)cs2)CC1	147	0.2	259	1520	25
CC(C)Oc1ccccc1N1CCN(Cc2ccc(CN3CCCCC3=O)s2)CC1	54	0.3	413	1250	18
